Assay results: patent US8772348B2, “Materials and methods for pest control” (priority 2009, dated 2014)
Read-outs that look alike come from different tables or passages of the source.

Assays:
Stomoxys calcitrans = conditions: S. calcitrans; formulation on plywood panels at 1.67 mg cm^−2; mortality 24 h after
Protocol: (§1) Briefly, each fly strain is divided into eight sets: three sets as the experiment, four sets as the positive control, and one set as the negative control. Flies are assayed on unpainted plywood panel boards that have been previously exposed to natural summer weather conditions for at least 10 days. […] The positive control set is treated with permethrin, geranyl acetone, rosalva or citronellol. The negative control set is treated with water. The formulation is applied at a uniform rate of 7.5 ml per 225 cm^2, sufficient to cover the entire panel without dripping. Subsequently, the treated panel boards are dried for about an hour.
(§2) In each set, 20 adult flies are placed onto the panel boards. Flies are secured with wooden embroidery hoops, covered with a coarse mesh screen cloth previously sprayed with the respective formulation. After 4 hours, flies are transferred into a clean jar. The mortality rate is measured 24 hours after the transfer, and is determined using the same procedures as are illustrated in Example 2.
(§3) Plywood panels (225 cm^2) were treated with chemicals at a rate of 1.67 mgcm^−2. Panels were treated on day 0 and held until exposure on post-treatment day. Mosquitoes were exposed to chemicals for 2 h, and mortality rate was assessed 24 h after initial exposure. Control contained formulation ingredients without semiochemicals.

Musca domestica [1] = conditions: M. domestica; formulation on plywood panels at 1.67 mg cm^−2; mortality 24 h after
Protocol: as §1, §2, §3

[2] = system: Susceptible Musca domestica; experiment: Glass jar contact bioassay, susceptible (laboratory) house flies
Protocol: Briefly, adult house flies, Musca domestica, are obtained from strains that have been reared in the laboratory of the Entomology and Nematology Department, University of Florida. […] The positive control is exposed to serial dilutions of permethrin. The negative control is not exposed to any chemical compound. The mortality rate is measured after 2-hour, 4-hour, and 24-hour periods. Ataxic flies are considered dead.
(§4) The ability of house flies to recover from insecticidal exposure is also investigated. After a 2-hour exposure, each set of flies is transferred into a separate glass jar. The mortality rate is measured at two time intervals: first, immediately at the transfer (2 hours after the initial exposure), and second, 22 hours after the transfer (24 hours after the initial exposure).
The mortality rate is analyzed using the PROBIT model. The data is adjusted based on the mortality rate in the control set using the Abbott's transformation, and the percent mortality is further analyzed based on ANOVA measurement. The experiment is repeated at least three times. The data is discarded if the mortality rate in the control set exceeds 10%. The LC50 and LC90 values are further determined using the SAS (Cary, N.C., USA) statistical software. For each chemical compound, at least 1280 flies are examined.

Musca domestica [3] = conditions: formulation on plywood panels, 3.33 mg cm^−2 (footnote 1.67), 2 h exposure, mortality 24 h after
Protocol: Briefly, after Musca domestica is exposed to formulations at concentration of 3.33 mg cm^−2 for 2 hours, each set is transferred into a separate glass jar, and held for another 24 hours.
as §3, with “of 1.67 mg cm^−2. Panels were” for “of 1.67 mgcm^−2. Panels were”, “0 and was held until” for “0 and held until”

[4] = system: Field-collected Musca domestica
Protocol: Briefly, one Musca domestica strain is collected from the University of Florida dairy unit in Alachua County, Florida, U.S.A. (“the Alachua strain”). The other Musca domestica strain is collected from a dairy farm in Gilchrist County, Florida, U.S.A. (“the Gilchrist strain”). Both strains are colonized adults, and are subsequently reared at 27° C. in the laboratory of the Entomology and Nematology Department, University of Florida.
The positive control is exposed to serial dilutions of permethrin. The negative control is not exposed to any chemical compound. 1 mL of insecticide was dissolved in acetone (concentrations between 0.5 and 20 mg mL^−1) in a 60 mL glass jar having a 67.86 cm^2 inside surface area (Wheaton, Millville, N.J.). Jars were allowed to dry for 1 h prior to fly introduction. Flies were held in jars for 2, 4 and 24 h, and fly mortality rate was scored at that time. Sugar water (10%) was provided in all assays, unless stated otherwise. The mortality rate is measured after a 2-hour, 4-hour, and 24-hour period. Ataxic flies are considered dead. The mortality rate and the LC values are determined using the same procedures as is illustrated in Example 2.

Aedes aegypti [5] = conditions: On filter paper
Protocol: Briefly, yellow fever mosquito, Ae. aegypti were obtained from strains that have been cultured in the laboratory of the Entomology and Nematology Department, University of Florida.
(§5) The mortality rate is measured after a 2-hour, 4-hour and 24-hour exposure period. Ataxic mosquitoes are considered dead.
as §4, with “Ae. aegypti” for “house flies”, “Ae. aegypti” for “flies”, “separate” for “separate glass”

Aedes aegypti [6] = conditions: formulation on plywood panels at 1.67 mg cm^−2, 2 h exposure, mortality 24 h after initial exposure
Protocol: Briefly, after mosquitoes are assayed on unpainted plywood panel boards with formulation at a concentration of 1.67 mg cm^−2 for 2 hours, they are transferred into a separate glass jar, and held for another 24 hours. The mortality rate is measured daily for a continuous 4 days (Day 1 starts at 24 hours after the transfer), as is determined using the same procedures as are illustrated in Example 2.
as §3, with “of 1.67 mg cm^−2. Panels were” for “of 1.67 mgcm^−2. Panels were”, “0 and was held until” for “0 and held until”

Aedes aegypti [7] = conditions: On camouflage military fabric
Protocol: as §5
as §4, with “Ae. aegypti” for “house flies”, “Ae. aegypti” for “flies”, “separate” for “separate glass”
The mortality rate and the LC values are determined using the same procedures as is illustrated in Example 2.

[8] = 2 h constant exposure, glass jar
[9] = 2 h exposure, transferred to clean jars, mortality 24 h after initial exposure
[10] = 4 h constant exposure, glass jar
[11] = 24 h constant exposure, glass jar
[12] = Alachua strain, 2 h constant exposure
[13] = Alachua strain, 4 h constant exposure
[14] = Alachua strain, 24 h constant exposure
[15] = Gilchrist strain, 2 h constant exposure
[16] = Gilchrist strain, 4 h constant exposure
[17] = Gilchrist strain, 24 h constant exposure
[18] = 2 h exposure then transferred, mortality 24 h after initial exposure

For permethrin [reference compound], the “% mortality” value (Stomoxys calcitrans) was 100.00a %, the “% mortality” value (Musca domestica [1]) was 88.40a % and the LC50 [2, 8] was 0.18 μg cm^−2. It also gave an LC90 [2, 8] of 1.20 μg cm^−2, an LC50 [2, 9] of 0.58 μg cm^−2 and an LC90 [2, 9] of 3.56 μg cm^−2. For the same substance, the “decline in toxicity after a 24-hour holding period subsequent to an initial 2-hour exposure” value ([2]; 2 h transferred vs 2 h constant) was roughly 3 fold, the LC50 [2, 10] was 0.10 μg cm^−2 and the LC90 [2, 10] was 0.95 μg cm^−2. For the same substance, the LC50 [2, 11] was 0.03 μg cm^−2, the LC90 [2, 11] was 0.41 μg cm^−2 and the “% mortality on various days following treatment” value (Musca domestica [3]; day 1) was 100.00a %. For the same substance, the “% mortality on various days following treatment” value (Musca domestica [3]; day 2) was 90.50a %, the “% mortality on various days following treatment” value (Musca domestica [3]; day 3) was 97.50a % and the “% mortality on various days following treatment” value (Musca domestica [3]; day 5) was 97.50a %. For the same substance, the “% mortality on various days following treatment” value (Musca domestica [3]; day 7) was 97.50a %, the “% mortality on various days following treatment” value (Musca domestica [3]; day 14) was 67.00a % and the LC50 [4, 12] was 4.61 μg cm^−2. For the same substance, the LC90 [4, 12] was 14.86 μg cm^−2, the LC50 [4, 13] was 4.10 μg cm^−2 and the LC90 [4, 13] was 15.85 μg cm^−2. It also gave an LC50 [4, 14] of 0.99 μg cm^−2, an LC90 [4, 14] of 3.78 μg cm^−2 and an LC50 [4, 15] of 0.41 μg cm^−2. It also gave an LC90 [4, 15] of 1.82 μg cm^−2, an LC50 [4, 16] of 0.39 μg cm^−2 and an LC90 [4, 16] of 1.51 μg cm^−2. The LC50 [4, 17] was 0.16 μg cm^−2, the LC90 [4, 17] was 0.85 μg cm^−2 and the LC50 (Aedes aegypti [5]; 2 h constant exposure) was 0.02 μg cm^−2. It also gave an LC50 (Aedes aegypti [5]; [18]) of 0.04 μg cm^−2, an LC50 (Aedes aegypti [5]; 4 h constant exposure) of 0.0018 μg cm^−2 and an LC50 (Aedes aegypti [5]; 24 hr constant exposure) of 0.00045 μg cm^−2. For the same substance, the “% mortality on various days following treatment” value (Aedes aegypti [6]; day 1) was 100.00a %, the “% mortality on various days following treatment” value (Aedes aegypti [6]; day 2) was 99.00a % and the “% mortality on various days following treatment” value (Aedes aegypti [6]; day 3) was 98.0a %. For the same substance, the “% mortality on various days following treatment” value (Aedes aegypti [6]; day 4) was 96.50a %, the LC50 (Aedes aegypti [7]; 2 h constant exposure) was 0.012 μg cm^−2 and the LC50 (Aedes aegypti [7]; [18]) was 0.45 μg cm^−2. For the same substance, the LC50 (Aedes aegypti [7]; 4 h constant exposure) was 0.0009 μg cm^−2 and the LC50 (Aedes aegypti [7]; 24 hr constant exposure) was 0.00031 μg cm^−2.
